Our source for the IC50 values is patent publication US8637523B2, “Compounds for the reduction of beta-amyloid production” (Bristol-Myers Squibb Company, priority 2010, dated 2014).

One experiment has as its system Aβ42. Description: Cellular assay for inhibition of Aβ1-42 production (H4 APP751 SWE clone 8.20). The format is cell-based. The note with it: 19 h, H4 APP751 SWE clone 8.20 cells, 19 h incubation; read-out: Activity Rating (Aβ42 cellular IC50), class symbol. In a few lines:
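Compound-treated cells were incubated 19 h at 37 °C in 5% CO2. Aβ42 in the cell plate was detected overnight at 4 °C with an Aβ42 neoepitope antibody (565, Wallac-labelled, 0.8 ng/well) plus N-terminal antibody 26D6 (APC, 75 ng/well) in 40 mM Tris-HCl pH 7.4, 0.2% BSA. IC50s came from curve fitting.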
As for `CN1CCCOc2cc(ccc2C#N)Nc2nc3c(c1n2)CCC3c1ccc(F)cc1F` (centres unmarked) [Example 35A, 7-cyano-17-(2,4-difluorophenyl)-13-methyl-11,12,13,15,16,17-hexahydro-10H-14,2-(azeno)-8,4-(metheno)cyclopenta[g][1,5,9,11]oxatriazacyclohexadecine], the IC50 fell in the range of 10 to 100 nM.

Consider `N#Cc1ccc2cc1OCCCCCc1nc(nc3c1CCC3c1ccccc1)N2` (centres unmarked) [Example 38B, 7-cyano-18-phenyl-10,11,12,13,14,16,17,18-octahydro-15,2-(azeno)-8,4-(metheno)cyclopenta[h][1,10,12]oxadiazacycloheptadecine], for which the IC50 was 100 to 1000 nM.

For the compound `Cc1ncnn1-c1ccc2cc1OC/C=C\CN(C)c1nc(nc3c1CCC3c1ccccc1)N2` (centres unmarked) [Example 41B, (11Z)-14-methyl-7-(5-methyl-1H-1,2,4-triazol-1-yl)-18-phenyl-10,13,14,16,17,18-hexahydro-15,2-(azeno)-8,4-(metheno)cyclopenta[h][1,6,10,12]oxatriazacycloheptadecine], the IC50 lay within 10 to 100 nM.

In the case of `Cc1ncn(-c2ccc3cc2OC/C=C\CN(C)c2nc(nc4c2CCC4c2ccccc2)N3)n1` (centres unmarked) [Example 44A, (11Z)-14-methyl-7-(3-methyl-1H-1,2,4-triazol-1-yl)-18-phenyl-10,13,14,16,17,18-hexahydro-15,2-(azeno)-8,4-(metheno)cyclopenta[h][1,6,10,12]oxatriazacycloheptadecine], the IC50 was less than 10 nM.

For the compound `Cc1ncnn1-c1ccc2cc1OCCCCNc1nc(nc3c1CCC3c1ccccc1)N2` (centres unmarked) [Example 47B, 7-(5-methyl-1H-1,2,4-triazol-1-yl)-18-phenyl-10,11,12,13,14,16,17,18-octahydro-15,2-(azeno)-8,4-(metheno)cyclopenta[h][1,6,10,12]oxatriazacycloheptadecine], the concentration for half-maximal inhibition (IC50) fell in the range of 10 to 100 nM.

Take `Cc1ncnn1-c1ccc2cc1OCCCCN(C)c1nc(nc3c1CCC3c1ccccc1)N2` (centres unmarked) [Example 48A, 14-methyl-7-(5-methyl-1H-1,2,4-triazol-1-yl)-18-phenyl-10,11,12,13,14,16,17,18-octahydro-15,2-(azeno)-8,4-(metheno)cyclopenta[h][1,6,10,12]oxatriazacycloheptadecine]: the IC50 is less than 10 nM.

With `Cc1ncn(-c2ccc3cc2OCCCCNc2nc(nc4c2CCC4c2ccccc2)N3)n1` (centres unmarked) [Example 49B, 7-(3-methyl-1H-1,2,4-triazol-1-yl)-18-phenyl-10,11,12,13,14,16,17,18-octahydro-15,2-(azeno)-8,4-(metheno)cyclopenta[h][1,6,10,12]oxatriazacycloheptadecine], the IC50 was 10 to 100 nM.

As for `Cc1ncn(-c2ccc3cc2OCCCCN(C)c2nc(nc4c2CCC4c2ccccc2)N3)n1` (centres unmarked) [Example 50B, 14-methyl-7-(3-methyl-1H-1,2,4-triazol-1-yl)-18-phenyl-10,11,12,13,14,16,17,18-octahydro-15,2-(azeno)-8,4-(metheno)cyclopenta[h][1,6,10,12]oxatriazacycloheptadecine], the IC50 is 10 to 100 nM.

Staying with this experiment, now noted: 19 h, H4 APP751 SWE clone 8.20 cells, 19 h incubation; unit inferred; read-out: Activity Rating (Aβ42 cellular IC50), numeric value.
Take `N#Cc1ccc2cc1OCCCNc1nc(nc3c1CCC3c1ccc(F)cc1F)N2` (centres unmarked) [Example 33B, 7-cyano-17-(2,4-difluorophenyl)-11,12,13,15,16,17-hexahydro-10H-14,2-(azeno)-8,4-(metheno)cyclopenta[g][1,5,9,14]oxatriazacyclohexadecine]: the IC50 came to 37 nM.

As for `CN1CCCOc2cc(ccc2C#N)Nc2nc3c(c1n2)CCC3c1ccc(F)cc1F` (centres unmarked) [Example 35B, 7-cyano-17-(2,4-difluorophenyl)-13-methyl-11,12,13,15,16,17-hexahydro-10H-14,2-(azeno)-8,4-(metheno)cyclopenta[g][1,5,9,11]oxatriazacyclohexadecine], the half-inhibitory concentration (IC50) turned out to be 140 nM.

Regarding `Cc1ncn(-c2ccc3cc2OC/C=C\CN(C)c2nc(nc4c2CCC4c2ccccc2)N3)n1` (centres unmarked) [Example 44B, (11Z)-14-methyl-7-(3-methyl-1H-1,2,4-triazol-1-yl)-18-phenyl-10,13,14,16,17,18-hexahydro-15,2-(azeno)-8,4-(metheno)cyclopenta[h][1,6,10,12]oxatriazacycloheptadecine], the 50% inhibitory concentration (IC50) turned out to be 30 nM.

For `Cc1ncnn1-c1ccc2cc1OCCCCNc1nc(nc3c1CCC3c1ccccc1)N2` (centres unmarked) [Example 47A, 7-(5-methyl-1H-1,2,4-triazol-1-yl)-18-phenyl-10,11,12,13,14,16,17,18-octahydro-15,2-(azeno)-8,4-(metheno)cyclopenta[h][1,6,10,12]oxatriazacycloheptadecine], the IC50 came out at 5.6 nM.

For the compound `Cc1ncnn1-c1ccc2cc1OCCCCN(C)c1nc(nc3c1CCC3c1ccccc1)N2` (centres unmarked) [Example 48B, 14-methyl-7-(5-methyl-1H-1,2,4-triazol-1-yl)-18-phenyl-10,11,12,13,14,16,17,18-octahydro-15,2-(azeno)-8,4-(metheno)cyclopenta[h][1,6,10,12]oxatriazacycloheptadecine], the IC50 was 88 nM.

Staying with this experiment, now noted: H4 APP751 SWE clone 8.20 cells, 19 h incubation; read-out: Activity Rating (Aβ42 cellular IC50), class symbol.
`N#Cc1ccc2cc1OC/C=C/CCc1nc(nc3c1CCC3c1ccccc1)N2` (centres unmarked) [Example 37B, (11E)-7-cyano-18-phenyl-10,13,14,16,17,18-hexahydro-15,2-(azeno)-8,4-(metheno)cyclopenta[h][1,10,12]oxadiazacycloheptadecine]: the IC50 is 10 to 100 nM.

Consider `Cc1ncn(-c2ccc3cc2OCC=CCNc2nc(nc4c2CCC4c2ccccc2)N3)n1` (centres unmarked) [Example 39B, (11Z)-7-(3-methyl-1H-1,2,4-triazol-1-yl)-18-phenyl-10,13,14,16,17,18-hexahydro-15,2-(azeno)-8,4-(metheno)cyclopenta[h][1,6,10,12]oxatriazacycloheptadecine], for which the IC50 is 10 to 100 nM.

For the compound `Cc1ncnn1-c1ccc2cc1OCC=CCNc1nc(nc3c1CCC3c1ccccc1)N2` (centres unmarked) [Example 42B, (11Z)-7-(5-methyl-1H-1,2,4-triazol-1-yl)-18-phenyl-10,13,14,16,17,18-hexahydro-15,2-(azeno)-8,4-(metheno)cyclopenta[h][1,6,10,12]oxatriazacycloheptadecine], the IC50 was 10 to 100 nM.

On to `Cc1ncnn1-c1ccc2cc1OCC=CCNc1nc(nc3c1CCC3c1ccccc1)N2` (centres unmarked) [Example 43A, (11E)-7-(5-methyl-1H-1,2,4-triazol-1-yl)-18-phenyl-10,13,14,16,17,18-hexahydro-15,2-(azeno)-8,4-(metheno)cyclopenta[h][1,6,10,12]oxatriazacycloheptadecine], for which the IC50 was less than 10 nM.

Regarding `Cc1ncn(-c2ccc3cc2OC/C=C\CNc2nc(nc4c2CCC4c2ccc(F)cc2)N3)n1` (centres unmarked) [Example 45B, (11Z)-18-(4-fluorophenyl)-7-(3-methyl-1H-1,2,4-triazol-1-yl)-10,13,14,16,17,18-hexahydro-15,2-(azeno)-8,4-(metheno)cyclopenta[h][1,6,10,12]oxatriazacycloheptadecine], the IC50 was in the range of 10 to 100 nM.

Turning to `Cc1ncn(-c2ccc3cc2OCC=CCNc2nc(nc4c2CCC4c2ccc(F)cc2)N3)n1` (centres unmarked) [Example 46B, (11E)-18-(4-fluorophenyl)-7-(3-methyl-1H-1,2,4-triazol-1-yl)-10,13,14,16,17,18-hexahydro-15,2-(azeno)-8,4-(metheno)cyclopenta[h][1,6,10,12]oxatriazacycloheptadecine], the concentration for half-maximal inhibition (IC50) was 100 to 1000 nM.

As to `Cc1ncn(-c2ccc3cc2OCCCCNc2nc(nc4c2CCC4c2ccccc2)N3)n1` (centres unmarked) [Example 49A, 7-(3-methyl-1H-1,2,4-triazol-1-yl)-18-phenyl-10,11,12,13,14,16,17,18-octahydro-15,2-(azeno)-8,4-(metheno)cyclopenta[h][1,6,10,12]oxatriazacycloheptadecine], the IC50 is less than 10 nM.

For the compound `Cc1ncn(-c2ccc3cc2OCCCCN(C)c2nc(nc4c2CCC4c2ccccc2)N3)n1` (centres unmarked) [Example 50A, 14-methyl-7-(3-methyl-1H-1,2,4-triazol-1-yl)-18-phenyl-10,11,12,13,14,16,17,18-octahydro-15,2-(azeno)-8,4-(metheno)cyclopenta[h][1,6,10,12]oxatriazacycloheptadecine], the IC50 is less than 10 nM.

With `Cc1ncn(-c2ccc3cc2OC/C=C/CNc2nc(nc4c2CCC4c2ccc(F)cc2F)N3)n1` (centres unmarked) [Example 52B, (11E)-18-(2,4-difluorophenyl)-7-(3-methyl-1H-1,2,4-triazol-1-yl)-10,13,14,16,17,18-hexahydro-15,2-(azeno)-8,4-(metheno)cyclopenta[h][1,6,10,12]oxatriazacycloheptadecine], the IC50 lay in the range of 10 to 100 nM.

The experiment is the same for the next values; noted with them: H4 APP751 SWE clone 8.20 cells, 19 h incubation; unit inferred; read-out: Activity Rating (Aβ42 cellular IC50), numeric value.
With `Cc1ncn(-c2ccc3cc2OCC=CCNc2nc(nc4c2CCC4c2ccccc2)N3)n1` (centres unmarked) [Example 39A, (11Z)-7-(3-methyl-1H-1,2,4-triazol-1-yl)-18-phenyl-10,13,14,16,17,18-hexahydro-15,2-(azeno)-8,4-(metheno)cyclopenta[h][1,6,10,12]oxatriazacycloheptadecine], the IC50 came to 4 nM.

Consider `Cc1ncnn1-c1ccc2cc1OCC=CCNc1nc(nc3c1CCC3c1ccccc1)N2` (centres unmarked) [Example 42A, (11Z)-7-(5-methyl-1H-1,2,4-triazol-1-yl)-18-phenyl-10,13,14,16,17,18-hexahydro-15,2-(azeno)-8,4-(metheno)cyclopenta[h][1,6,10,12]oxatriazacycloheptadecine], for which the IC50 turned out to be 6.6 nM.

Take `Cc1ncnn1-c1ccc2cc1OCC=CCNc1nc(nc3c1CCC3c1ccccc1)N2` (centres unmarked) [Example 43B, (11E)-7-(5-methyl-1H-1,2,4-triazol-1-yl)-18-phenyl-10,13,14,16,17,18-hexahydro-15,2-(azeno)-8,4-(metheno)cyclopenta[h][1,6,10,12]oxatriazacycloheptadecine]: the IC50 came out at 53 nM.

Regarding `Cc1ncn(-c2ccc3cc2OC/C=C/CNc2nc(nc4c2CCC4c2ccc(F)cc2F)N3)n1` (centres unmarked) [Example 52A, (11E)-18-(2,4-difluorophenyl)-7-(3-methyl-1H-1,2,4-triazol-1-yl)-10,13,14,16,17,18-hexahydro-15,2-(azeno)-8,4-(metheno)cyclopenta[h][1,6,10,12]oxatriazacycloheptadecine], the IC50 came to 11 nM.
